# Source: ChEMBL document CHEMBL1201862, “PubChem BioAssay data set” (2004)
# The source made the active and inactive calls.
# Assays:
# [1] = test system: HEK293; assay: cells; assay type: functional, cell-based; details: Homo sapiens
# [2] = test system: HEK293; assay: inhibition of NOD1-driven NF-kB reporter – cell-based, luminescence, uHTS, primary screen (AID 1578); assay type: functional; details: Homo sapiens
# [3] = THP-1 cell cytotoxicity, dose response, cytotoxicity control for non-replicating M. tuberculosis project (AID 489025); assay type: functional
# [4] = HepG2 cell cytotoxicity, dose response, cytotoxicity control for non-replicating M. tuberculosis project (AID 489018); assay type: functional; details: Mycobacterium tuberculosis
# [5] = test system: HEK293; assay: cells; assay type: functional, cell-based; details: Homo sapiens; remark: listed apart in the source
# [6] = Vero E6 cell cytotoxicity, dose response, cytotoxicity control for non-replicating M. tuberculosis project, secondary assay (AID 492998); assay type: functional, VeroE6; details: Vero C1008
# [7] = biological target: DNA dC->dU-editing enzyme APOBEC-3G (Homo sapiens, UniProt Q9HC16); assay: Dose Response confirmation of small molecule APOBEC3G DNA Deaminase Inhibitors via a fluorescence-based single-stranded DNA deaminase assay. [Related pubchem assays (depositor defined):AID493012, AID493028]; assay type: functional
# [8] = biological target: DNA dC->dU-editing enzyme APOBEC-3A (Homo sapiens, UniProt P31941); assay: A3A deaminase inhibition for selectivity – biochemical, dose response (AID 504722); assay type: functional
# [9] = biological target: Delta-type opioid receptor (Homo sapiens, UniProt P41143); assay: SAR Analysis of Antagonists of the DOR Receptor using an Image-Based Assay - Set 3. [Related pubchem assays (depositor defined):AID1777, AID1785]; assay type: functional;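 also: U2OS cells expressing DOR1 and beta-arrestin GFP stimulated with 100 nM SNC80; imaging of GFP-tagged beta-arrestin moving into spots after receptor activation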
# [10] = biological target: Mu-type opioid receptor (Homo sapiens, UniProt P35372); assay: SAR Analysis of Antagonists of the MOR Receptor using an Image-Based Assay - Set 3. [Related pubchem assays (depositor defined):AID1777, AID1785, AID1786, AID1966, AID2133, AID2136, AID2284, AID2285, AID2420]; assay type: functional
# [11] = test system: Streptococcus; assay: GAS UMAA2166 growth inhibition – luminescence, BacTiterGlo, counter-screen for streptokinase expression inhibitor project, dose response (AID 1915); assay type: functional, organism-based;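 also: potency for reduction of bacterial viability or growth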
# [12] = biological target: T1, Streptokinase A (Streptococcus pyogenes serotype M1, UniProt P10520); assay: viability-normalized secreted streptokinase activity reduction – plasminogen activation absorbance, OD405, dose response (AID 1914); assay type: functional, Streptococcus pyogenes M1 GAS;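 also: secreted streptokinase activity via plasminogen activation per viability signal from cell pellet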
# T1 sequence (P10520 whole entry): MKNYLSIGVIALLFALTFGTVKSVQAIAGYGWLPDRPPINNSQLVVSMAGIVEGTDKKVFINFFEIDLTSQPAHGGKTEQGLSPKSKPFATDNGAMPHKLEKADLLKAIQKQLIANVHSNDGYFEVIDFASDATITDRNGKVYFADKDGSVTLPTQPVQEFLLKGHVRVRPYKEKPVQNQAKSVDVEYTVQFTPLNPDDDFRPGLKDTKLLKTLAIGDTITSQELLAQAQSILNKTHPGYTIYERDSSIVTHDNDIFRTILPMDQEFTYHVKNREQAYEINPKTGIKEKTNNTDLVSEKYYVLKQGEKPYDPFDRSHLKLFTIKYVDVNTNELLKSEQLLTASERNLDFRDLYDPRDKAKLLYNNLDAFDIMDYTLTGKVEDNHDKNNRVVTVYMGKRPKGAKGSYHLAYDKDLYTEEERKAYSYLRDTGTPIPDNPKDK
# [13] = test system: Streptococcus sp. 'group A'; assay: Streptococcus pyogenes SK(-)GAS viability under kanamycin – luminescence, BacTiterGlo, confirmation, counter-screen for streptokinase expression inhibitor project, dose response (AID 1900); assay type: functional, organism-based
# [14] = biological target: E3 ubiquitin-protein ligase Mdm2/Protein Mdm4 (Homo sapiens, UniProt O15151+Q00987); assay: disruption of Mdm2/MdmX protein binding – luminescence detection, dose response (AID 504593); assay type: functional
# E3 ubiquitin-protein ligase Mdm2/Protein Mdm4, sequence (Q00987 whole entry): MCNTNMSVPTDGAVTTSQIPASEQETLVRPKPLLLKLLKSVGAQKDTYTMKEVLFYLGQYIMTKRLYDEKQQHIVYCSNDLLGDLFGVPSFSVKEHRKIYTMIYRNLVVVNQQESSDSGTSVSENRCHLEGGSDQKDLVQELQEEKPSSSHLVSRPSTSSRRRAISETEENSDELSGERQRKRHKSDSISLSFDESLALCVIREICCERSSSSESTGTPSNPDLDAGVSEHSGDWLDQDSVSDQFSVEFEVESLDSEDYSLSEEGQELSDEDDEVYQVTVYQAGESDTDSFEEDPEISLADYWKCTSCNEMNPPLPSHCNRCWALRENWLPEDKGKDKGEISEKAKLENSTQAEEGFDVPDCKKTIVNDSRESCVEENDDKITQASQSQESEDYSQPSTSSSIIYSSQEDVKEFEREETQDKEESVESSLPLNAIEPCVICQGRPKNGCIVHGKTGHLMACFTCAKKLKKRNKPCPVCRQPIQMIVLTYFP
# E3 ubiquitin-protein ligase Mdm2/Protein Mdm4, sequence (O15151 whole entry): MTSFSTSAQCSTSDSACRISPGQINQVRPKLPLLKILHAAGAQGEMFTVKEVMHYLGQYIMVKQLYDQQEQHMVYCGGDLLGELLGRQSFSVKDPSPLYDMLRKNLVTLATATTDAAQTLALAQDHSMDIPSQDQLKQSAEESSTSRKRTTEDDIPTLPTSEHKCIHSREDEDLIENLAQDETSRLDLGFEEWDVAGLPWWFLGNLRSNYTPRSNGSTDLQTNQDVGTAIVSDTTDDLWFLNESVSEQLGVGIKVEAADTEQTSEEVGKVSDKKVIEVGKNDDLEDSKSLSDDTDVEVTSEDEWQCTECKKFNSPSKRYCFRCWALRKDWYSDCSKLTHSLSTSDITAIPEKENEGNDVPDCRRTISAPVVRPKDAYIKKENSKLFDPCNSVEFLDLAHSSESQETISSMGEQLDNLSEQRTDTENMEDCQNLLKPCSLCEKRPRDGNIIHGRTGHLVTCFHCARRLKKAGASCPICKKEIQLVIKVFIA
# Mu-type opioid receptor, sequence (P35372 whole entry): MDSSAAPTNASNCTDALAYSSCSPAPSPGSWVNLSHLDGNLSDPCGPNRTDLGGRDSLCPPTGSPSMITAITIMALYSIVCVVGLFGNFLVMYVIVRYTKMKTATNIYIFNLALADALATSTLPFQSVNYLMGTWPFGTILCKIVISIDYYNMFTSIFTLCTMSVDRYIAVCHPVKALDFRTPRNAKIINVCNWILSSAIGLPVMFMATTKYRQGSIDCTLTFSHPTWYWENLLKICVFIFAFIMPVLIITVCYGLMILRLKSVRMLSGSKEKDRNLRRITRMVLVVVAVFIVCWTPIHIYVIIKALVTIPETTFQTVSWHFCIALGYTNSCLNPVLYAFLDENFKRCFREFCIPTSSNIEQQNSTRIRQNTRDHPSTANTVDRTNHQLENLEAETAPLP
# DNA dC->dU-editing enzyme APOBEC-3A, sequence (P31941 whole entry): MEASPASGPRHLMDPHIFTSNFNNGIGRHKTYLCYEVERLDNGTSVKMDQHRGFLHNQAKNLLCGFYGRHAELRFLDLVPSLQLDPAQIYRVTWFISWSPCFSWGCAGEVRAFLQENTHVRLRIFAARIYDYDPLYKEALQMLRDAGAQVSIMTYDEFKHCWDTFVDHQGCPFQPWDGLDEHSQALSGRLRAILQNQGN
# DNA dC->dU-editing enzyme APOBEC-3G, sequence (Q9HC16 whole entry): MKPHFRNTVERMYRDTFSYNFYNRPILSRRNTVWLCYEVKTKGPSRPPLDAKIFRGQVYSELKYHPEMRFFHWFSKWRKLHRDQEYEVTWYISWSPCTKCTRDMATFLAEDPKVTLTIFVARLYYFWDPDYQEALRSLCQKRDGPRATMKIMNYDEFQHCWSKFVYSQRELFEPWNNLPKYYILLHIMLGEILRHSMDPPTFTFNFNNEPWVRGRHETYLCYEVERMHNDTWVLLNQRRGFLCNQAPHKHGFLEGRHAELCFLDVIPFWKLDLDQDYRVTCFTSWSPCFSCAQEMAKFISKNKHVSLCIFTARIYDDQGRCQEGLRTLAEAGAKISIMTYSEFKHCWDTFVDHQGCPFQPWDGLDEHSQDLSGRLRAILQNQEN
# Delta-type opioid receptor, sequence (P41143 whole entry): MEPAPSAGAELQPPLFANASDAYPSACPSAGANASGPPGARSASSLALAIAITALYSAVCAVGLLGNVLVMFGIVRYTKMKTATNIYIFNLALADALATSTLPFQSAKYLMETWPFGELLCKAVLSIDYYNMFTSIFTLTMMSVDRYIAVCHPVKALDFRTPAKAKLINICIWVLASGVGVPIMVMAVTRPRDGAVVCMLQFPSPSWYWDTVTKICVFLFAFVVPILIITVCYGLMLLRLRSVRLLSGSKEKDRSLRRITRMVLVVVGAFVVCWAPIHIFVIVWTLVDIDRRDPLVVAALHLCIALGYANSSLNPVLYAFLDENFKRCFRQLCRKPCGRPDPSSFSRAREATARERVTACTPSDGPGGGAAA
structure (smiles),measurement,setting,value
CN(C)S(=O)(=O)Oc1ccc(C(=O)Nc2cccc(C(F)(F)F)c2)cc1,IC50,[1],12.1 µM (active)
same,EC50,[2],10.9 µM (active)
same,CC50,[3],> 40 µM (active)
same,CC50,[4],> 20 µM (active)
same,IC50,[5],6.71 µM (active)
same,CC50,[6],> 20 µM (active)
Cc1cc(-c2nnc(S)n2/N=C/c2ccc(C)s2)[nH]n1,IC50,[7],2.28 µM (active)
same,IC50,[8],> 100 µM (inactive)
Cc1ccc(S(=O)(=O)NCc2ccc(C(=O)NCCN(Cc3ccc(Br)cc3)C(C)C)cc2)cc1,IC50,[9],> 32 µM (inactive)
same,IC50,[10],> 32 µM (inactive)
C/C(=N\Nc1cc(C)nc(-c2ccccc2O)n1)c1ccccc1O,EC50,[11],> 150 µM (not active)
same,EC50,[12],14 µM (active)
same,EC50,[13],4.57 µM (active)
same,IC50,[14],6.71 µM (active)
